*1 amine or outer side, *2 acyl side, *3 side chain or, on linkers, in order; H or OH if unused. Where a SMILES comes first, the peptide text is derived from it. Bridges are numbered along the chain shown (N, C = ends). Roman numbers before positions name the chains, in order. [ ]: non-standard residue; d: D form. X1 = O=C(CCCCC(=O)[*:2])NCCCOCCOCCOCCCNC(=O)CCC(=O)[*:1]; NMeF = CN[C@@H](Cc1ccccc1)C(=O)O; NMeL = CN[C@@H](CC(C)C)C(=O)O; NMeV = CN[C@H](C(=O)O)C(C)C
Columns and labels:
SH-SY5Y cells = experiment: MTT assay, self-toxicity of SP1; type: cell-based, human; details: 0.5-10 μM, 24 h
Experimental: 1.3. Methods for in vitro cell-based experiments
The human neuroblastoma cell line SH-SY5Y was obtained from the National Centre for Cell Science (NCCS, Pune, India). The cells were grown in DMEM, and Ham’s F12 nutrient mixture (DMEM/F12; 1:1) supplemented with 10% fetal bovine serum (FBS; Gibco, USA), 50 U/ml penicillin, 100 μg/ml streptomycin and incubated in a humidified atmosphere of 5% CO2 at 37°C. All experiments were carried […]
Each experiment was performed
Methylthiazol tetrazolium (MTT) reduction assay was used to measure the viability of cells.10 The SH-SY5Y cells were seeded at a density of 1.5 × 10^4 cells/well in a 96 well plate. To assess self-toxicity, cells […]
period 20µl of MTT reagent (5mg/ml in DPBS) was added to each well and incubated in a humidified atmosphere of 5% CO2 at 37°C for 4h. Formazan crystals (purple) are formed by the metabolically active cells by cleaving the yellow tetrazolium salt. After the incubation period, the MTT solution was aspirated, and 150µL of dimethyl sulfoxide (DMSO) was added to each well to dissolve the formazan precipitate.

Aβ40 = target: T1, Aβ40 (Homo sapiens, UniProt P05067); experiment: Thioflavin T assay, inhibition of Aβ40 amyloid formation; type: biochemical; details: ThT assay; Aβ40 50 μM; 5-fold molar excess; PBS 50 mM pH 7.4, 3% DMSO, 37 °C
T1 construct: 15N labeled (a) Aβ40 (80 μM)
T1 sequence (P05067 672-711 limits assumed): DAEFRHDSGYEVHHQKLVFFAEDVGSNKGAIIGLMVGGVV
Experimental: First, we monitored the kinetics of the amyloid formation of Aβ40 (50 μM) by thioflavin T (ThT) assay (Fig. 2a and b). The Aβ40 peptide alone aggregated with time, with a growth saturation point around 72 h, as evident from the surge in ThT fluorescence intensity. […] Green-gold birefringence appears to be a standard result of Aβ40 aggregation under cross-polarized light post-staining with Congo red dye. Owing to amyloid formation, Aβ40 appears as green-gold birefringence (Fig. 2d) under cross-polarized light when stained with Congo red.
400μL of the sample was taken in a cuvette of 1mm path length. Three measurements were accumulated.
Spectra were recorded from 190nm to 260nm on a JASCO J-1500 instrument. […]
1.5 mg of commercially available Aβ40 peptide was taken and disaggregated by TFA (50μ L) and evaporated under nitrogen gas. […] To obtain precise results, two more replicate solutions of each portion were prepared (total number of samples for this experiment was 27), and fibrillization was monitored by various biophysical tools. […]
b. Thioflavin T Fluorescence Assay
A stock solution of Thioflavin T (ThT) of concentration 50μM in PBS (50mM, pH 7.4) was prepared and stored at 4 °C with the proper protection to prevent degradation from light. […] For fluorescence studies, 40μLof peptide sample was mixed with 200μL of ThT solution (50μM), and the total volume was made up to 400μL using PBS. […]

CC(C)C[C@H](NC(=O)CNC(=O)CCC(=O)NCCCOCCOCCOCCCNC(=O)CCCCC(=O)NCC(=O)N(C)[C@@H](CC(C)C)C(=O)N[C@H](C(=O)N(C)[C@@H](Cc1ccccc1)C(=O)N[C@@H](Cc1ccccc1)C(=O)N[C@@H](C)C(N)=O)C(C)C)C(=O)N(C)[C@H](C(=O)N[C@@H](Cc1ccccc1)C(=O)N(C)[C@@H](Cc1ccccc1)C(=O)N[C@@H](C)C(N)=O)C(C)C [SP1] (I: GL[NMeV]F[NMeF]A-NH2 / II: G[NMeL]V[NMeF]FA-NH2; linker I:N-II:N via X1)
cytotoxicity of SP1 alone (SH-SY5Y cells): did not observe any discernible cytotoxicity even at the maximum concentrations (10 μM)
inhibition of Aβ40 amyloid formation (Aβ40): ~66%

— article PMC8179358, “An explicitly designed paratope of amyloid-β prevents neuronal apoptosis in vitro and hippocampal damage in rat brain” (Chemical Science, 2020)
